Measurements published in patent US20060045953A1 (priority 2004, published 2006).

Assays:
[1] = molecular target: T1, hT1R2/hT1R3 sweet receptor (Homo sapiens, UniProt Q7RTX0+Q8TE23); experiment: In vitro hT1R2/hT1R3 sweet taste receptor activation assay (FLIPR, dose response); format: cell-based; conditions: read-out: EC50 for activation of a hT1R2/hT1R3 sweet receptor expressed in an HEK293 cell line
T1 construct: expressed in transfected cells; host or cells: HEK293 derivative stably expressing Gα15, clone S-9
T1 sequence (Q8TE23 20-839): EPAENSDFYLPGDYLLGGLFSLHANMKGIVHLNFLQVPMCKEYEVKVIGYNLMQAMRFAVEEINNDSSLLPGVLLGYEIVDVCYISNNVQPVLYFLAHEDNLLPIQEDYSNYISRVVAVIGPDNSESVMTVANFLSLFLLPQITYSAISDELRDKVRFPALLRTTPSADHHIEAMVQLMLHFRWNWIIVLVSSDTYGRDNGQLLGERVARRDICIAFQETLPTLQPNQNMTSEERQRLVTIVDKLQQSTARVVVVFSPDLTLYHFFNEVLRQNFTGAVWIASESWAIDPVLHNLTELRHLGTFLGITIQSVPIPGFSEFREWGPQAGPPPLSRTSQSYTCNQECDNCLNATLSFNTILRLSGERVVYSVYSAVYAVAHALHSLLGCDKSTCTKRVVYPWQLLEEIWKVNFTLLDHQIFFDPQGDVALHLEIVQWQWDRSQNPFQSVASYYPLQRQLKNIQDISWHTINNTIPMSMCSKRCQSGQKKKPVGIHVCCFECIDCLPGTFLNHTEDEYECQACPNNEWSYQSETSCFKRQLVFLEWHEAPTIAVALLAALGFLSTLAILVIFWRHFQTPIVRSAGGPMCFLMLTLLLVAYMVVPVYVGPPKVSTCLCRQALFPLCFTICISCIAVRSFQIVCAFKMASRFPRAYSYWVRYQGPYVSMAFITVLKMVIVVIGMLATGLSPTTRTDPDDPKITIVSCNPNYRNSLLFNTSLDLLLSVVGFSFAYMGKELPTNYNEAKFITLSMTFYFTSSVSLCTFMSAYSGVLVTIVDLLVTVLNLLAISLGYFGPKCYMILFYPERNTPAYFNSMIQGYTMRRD
T1 sequence (Q7RTX0 21-852): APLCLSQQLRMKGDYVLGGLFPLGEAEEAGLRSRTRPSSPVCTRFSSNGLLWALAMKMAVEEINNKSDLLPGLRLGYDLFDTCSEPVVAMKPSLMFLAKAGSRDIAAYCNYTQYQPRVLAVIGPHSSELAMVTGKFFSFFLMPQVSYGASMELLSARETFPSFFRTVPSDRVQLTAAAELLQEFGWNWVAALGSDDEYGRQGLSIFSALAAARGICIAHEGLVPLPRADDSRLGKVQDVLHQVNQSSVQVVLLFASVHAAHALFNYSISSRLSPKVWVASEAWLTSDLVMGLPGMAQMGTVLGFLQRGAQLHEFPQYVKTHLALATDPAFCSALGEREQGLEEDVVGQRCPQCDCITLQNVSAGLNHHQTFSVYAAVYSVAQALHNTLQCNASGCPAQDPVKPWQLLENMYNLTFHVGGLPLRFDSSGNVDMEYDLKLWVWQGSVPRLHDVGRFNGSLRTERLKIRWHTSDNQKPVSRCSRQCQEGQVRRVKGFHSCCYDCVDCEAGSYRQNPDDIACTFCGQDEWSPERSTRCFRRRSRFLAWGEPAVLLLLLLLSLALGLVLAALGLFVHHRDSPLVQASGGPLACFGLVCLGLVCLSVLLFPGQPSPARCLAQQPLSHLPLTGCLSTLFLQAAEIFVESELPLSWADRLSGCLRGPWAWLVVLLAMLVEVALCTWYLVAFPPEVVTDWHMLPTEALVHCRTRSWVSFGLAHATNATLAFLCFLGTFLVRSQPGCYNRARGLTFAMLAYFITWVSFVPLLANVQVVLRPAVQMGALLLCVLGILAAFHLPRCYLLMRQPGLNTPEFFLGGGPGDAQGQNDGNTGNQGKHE
How it was run: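 Dose-response at 10 concentrations (60 nM–30 µM, duplicates) measured as Fluo-3AM calcium fluorescence on FLIPR in hT1R2/hT1R3 S-9 cells, in D-PBS at room temperature. Responses scaled to 400 mM D-fructose. EC50s from regression with all curve parameters floating.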

human panelists = experiment: Umami/savory flavor experiments using human panelists (trained panel, difference from reference); format: in vivo; conditions: savory taste; for Taste Data: concentration of cpd that with 12 mM MSG is as strong as 12 mM MSG + 100 μM IMP: aqueous solution with 12 mM MSG; for Taste Data: concentration of cpd (alone) as strong as 12 mM MSG: without MSG
Experimental: General Panelist Selection: Basic screening of sensory taste testers: Potential panelists were tested for their abilities to rank and rate intensities of solutions representing the five basic tastes. Panelists ranked and rated intensity of five different concentrations of each of the five following compounds: sucrose (sweet), sodium chloride (salty), citric acid (sour), caffeine (bitter), and monosodium glutamate (savory). In order to be selected for participation in testing, panelists needed to correctly rank and rate samples for intensity, with a reasonable number of errors. […]
Trained Panelist Selection: A trained expert panel was used to further evaluate compounds that had been tested with the preliminary taste test.
Panelists for the trained panel were selected from the larger group of qualifying taste panelists. Panelists were further trained on savory taste by ranking and rating experiments using MSG and IMP combinations. Panelists completed a series of ranking, rating, and difference from reference tests with savory solutions. In ranking and rating experiments, panelists evaluated easy MSG concentrations (0, 6, 18, 36 mM) and more difficult MSG concentrations (3, 6, 12, 18 mM MSG) in water.
Compound testing with Trained Panel: Compounds tested by the trained panel were evaluated in difference from reference experiments. […] Test samples were solutions with varying amounts of MSG, IMP, and the compound. Typically, each session compares the reference sample to numerous test samples. […] Compounds were tested against the reference in samples with and without 12 mM MSG. All samples were presented in 10 ml volumes at room temperature. Two sessions were completed for each compound tested to evaluate panel reproducibility.

[2] = molecular target: T2, hT1R1/hT1R3 umami receptor (Homo sapiens, UniProt Q7RTX0+Q7RTX1); experiment: In vitro hT1R1/hT1R3 umami taste receptor activation assay (FLIPR, dose response); format: cell-based; conditions: read-out: EC50 for activation of a hT1R1/hT1R3 umami receptor expressed in an HEK293 cell line
T2 construct: expressed in transfected cells; host or cells: HEK293 derivative stably expressing Gα15, clone I-17, expression induced with mifepristone
T2 sequence (Q7RTX1 21-841): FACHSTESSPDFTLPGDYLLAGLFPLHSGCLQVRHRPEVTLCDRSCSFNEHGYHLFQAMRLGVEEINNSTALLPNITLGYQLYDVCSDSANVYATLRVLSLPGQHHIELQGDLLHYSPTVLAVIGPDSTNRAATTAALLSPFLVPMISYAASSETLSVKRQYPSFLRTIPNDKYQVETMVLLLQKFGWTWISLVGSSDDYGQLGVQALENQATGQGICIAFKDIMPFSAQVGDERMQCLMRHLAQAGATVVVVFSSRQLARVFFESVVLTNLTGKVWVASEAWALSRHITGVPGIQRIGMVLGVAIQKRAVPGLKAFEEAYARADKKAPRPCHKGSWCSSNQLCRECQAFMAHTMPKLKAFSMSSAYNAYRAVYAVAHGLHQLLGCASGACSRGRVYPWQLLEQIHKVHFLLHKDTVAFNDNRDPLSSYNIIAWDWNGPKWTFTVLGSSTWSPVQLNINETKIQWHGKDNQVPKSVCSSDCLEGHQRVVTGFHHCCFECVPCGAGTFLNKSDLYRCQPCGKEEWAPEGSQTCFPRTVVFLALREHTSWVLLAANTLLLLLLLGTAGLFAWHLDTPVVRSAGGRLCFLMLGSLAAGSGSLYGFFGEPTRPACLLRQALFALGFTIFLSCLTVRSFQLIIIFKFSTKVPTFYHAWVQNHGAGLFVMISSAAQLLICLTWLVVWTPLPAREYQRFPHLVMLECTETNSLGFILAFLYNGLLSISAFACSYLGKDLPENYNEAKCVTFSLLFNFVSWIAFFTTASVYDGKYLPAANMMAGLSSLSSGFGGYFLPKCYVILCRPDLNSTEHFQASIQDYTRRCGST
T2 sequence (Q7RTX0 21-852): T1 sequence (Q7RTX0 21-852)

Row | Structure (SMILES) | melting point | EC50 [1] | Taste Data: concentration of cpd that with 12 mM MSG is as strong as 12 mM MSG + 100 μM IMP (human panelists) | EC50 [2] | Taste Data: concentration of cpd (alone) as strong as 12 mM MSG (human panelists)
1 | O=C(N[C@@H]1CCCc2c(O)cccc21)c1cccc(Cl)c1O (stereo in doubt) [Example 180, 3-Chloro-2-hydroxy-N-(5-hydroxy-1,2,3,4-tetrahydronaphthalen-1-yl)benzamide] | 148 to 151 °C | 1170 nM |  |  | 
2 | CCCC(CCC)NC(=O)c1ccc2c(c1)OCO2 [Example 1, N-(heptan-4-yl)benzo[d][1,3]dioxole-5-carboxamide] |  |  | 12 mM MSG + 3 μM cpd as strong as | 200 nM | 
3 | COC(=O)[C@@H](CC(C)C)NC(=O)c1ccc2c(c1)OCO2 [Example 6, (R)-methyl 2-(benzo[d][1,3]dioxole-6-carboxamido)-4-methylpentanoate] |  |  | 12 mM MSG + 10 μM cpd as strong as | 340 nM | 
4 | COC[C@@H](CC(C)C)NC(=O)c1ccc(C)c(C)c1 [Example 71, (R)-N-(1-methoxy-4-methylpentan-2-yl)-3,4-dimethylbenzamide] |  |  | 12 mM MSG + 3 μM cpd as strong as | 200 nM | 
5 | COC(=O)[C@@H](CC(C)C)NC(=O)c1cc(C)c(C)o1 [Example 98, (R)-methyl 2-(2,3-dimethylfuran-5-carboxamido)-4-methylpentanoate] |  |  | 12 mM MSG + 10 μM cpd as strong as | 590 nM | 
6 | COC[C@@H](CC(C)C)NC(=O)c1ccc(OC)c(C)c1 [Example 104, 4-Methoxy-N-(1-methoxymethyl-3-methyl-butyl)-3-methyl-benzamide] |  |  | 12 mM MSG + 3 μM cpd as strong as | 240 nM | 
7 | COc1ccc(C(=O)N[C@H]2CCc3ccccc32)cc1C [Example 121-1, (S)-N-(2,3-Dihydro-1H-inden-1-yl)-4-methoxy-3-methylbenzamide] |  |  | 12 mM MSG + 1 μM cpd as strong as | 80 nM | 1 μM cpd as strong as 12 mM MSG
8 | COc1ccc(CNC(=O)C(=O)NCCc2ccccn2)c(OC)c1 [Example 123, N-(2,4-Dimethoxy-benzyl)-N′-(2-pyridin-2-yl-ethyl)-oxalamide] |  |  | 12 mM MSG + 1 μM cpd as strong as | 90 nM | 1 μM cpd as strong as 12 mM MSG
9 | CCCC(CCC)NC(=O)Nc1ccc(OC)cc1OC [Example 159, 1-(2,4-dimethoxyphenyl)-3-(heptan-4-yl)urea] | 172 to 173 °C |  |  | 980 nM | 
10 | CCOc1ccc(NC(=O)NCCc2ccccn2)cc1 [Example 160, 1-(4-ethoxyphenyl)-3-(2-(pyridine-2-yl)ethyl)urea] | 163 to 164 °C |  |  | 4100 nM | 
11 | CC(C)c1ccc(NC(=O)NCCc2ccccn2)cc1 [Example 161, 1-(4-isopropylphenyl)-3-(2-(pyridine-2-yl)ethyl)urea] | 72 to 73 °C |  |  | 980 nM | 
12 | Cc1c(F)c(F)c(C(=O)NC2CCCCC2C)c(F)c1F (centres unmarked) [Example 162, 2,3,5,6-tetrafluoro-4-methyl-N-(2-methylcyclohexyl)benzamide] | 202 to 204 °C | 390 nM |  |  | 
13 | Cc1c(F)c(F)c(C(=O)NC2CCCCCC2)c(F)c1F [Example 164, N-cycloheptyl-2,3,5,6-tetrafluoro-4-methylbenzamide] | 164 to 165 °C | 1850 nM |  |  | 
14 | Cc1c(F)c(F)c(C(=O)NC(C(C)C)C(C)C)c(F)c1F [Example 165, N-(2,4-dimethylpentan-3-yl)-2,3,5,6-tetrafluoro-4-methylbenzamide] | 184 to 187 °C | 810 nM |  |  | 
15 | Cc1cc(C)c2c(c1)C(NC(=O)c1conc1C)CCC2 (centres unmarked) [Example 166, N-(5,7-dimethyl-1,2,3,4-tetrahydronaphthalen-1-yl)-3-methylisoxazole-4-carboxamide] | 57 to 58 °C | 760 nM |  |  | 
16 | COc1cccc2c1CCCC2NC(=O)c1cccc(Cl)c1O (centres unmarked) [Example 167, 3-chloro-2-hydroxy-N-(5-methoxy-1,2,3,4-tetrahydronaphthalen-1-yl) benzamide] | 175 to 176 °C | 210 nM |  |  | 
17 | O=C(Nc1ccc2c(c1)OCO2)N1Cc2ccccc2C1 [Example 174, N-(3,4-methylenedioxyphenyl)isoindoline-2-carboxamide] | 165 to 166 °C | 1050 nM |  |  | 
18 | COc1ccc2c(c1)CCC[C@H]2NC(=O)c1cccc(Cl)c1O [Example 183, (R)-3-Chloro-2-hydroxy-N-(6-methoxy-1,2,3,4-tetrahydronaphthalen-1-yl)benzamide] | 111 to 113 °C | 850 nM |  |  | 
